In patent US7858618B2, “Compounds” (Boehringer Ingelheim International GmbH, priority 2006, dated 2010):
pKi: −log10 of the molar value.

Target: T1, hBK1 receptor (Homo sapiens, UniProt P46663)
T1 construct: expressed in transfected cells; host or cells: CHO cells
T1 sequence (P46663 1-353): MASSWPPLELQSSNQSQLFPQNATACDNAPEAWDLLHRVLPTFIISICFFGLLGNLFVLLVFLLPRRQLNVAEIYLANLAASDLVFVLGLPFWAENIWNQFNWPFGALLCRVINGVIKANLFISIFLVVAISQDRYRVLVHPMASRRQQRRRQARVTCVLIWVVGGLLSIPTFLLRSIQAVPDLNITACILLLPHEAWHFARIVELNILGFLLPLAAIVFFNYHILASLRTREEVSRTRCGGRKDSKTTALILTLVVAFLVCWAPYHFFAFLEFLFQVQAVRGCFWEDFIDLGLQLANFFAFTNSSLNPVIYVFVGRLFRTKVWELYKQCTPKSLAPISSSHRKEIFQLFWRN
Assay: hBK1 receptor binding (displacement of [3H]-kallidin (DesArg10, Leu9) from membranes of CHO cells expressing the hBK1 receptor)
Settings: CHO cell membranes expressing hBK1 receptor; 0.5 to 1.0 nM [3H]-kallidin (DesArg10, Leu9); 60 minutes at room temperature
Description: Description of the Method of hBK1 Receptor Binding
CHO cells expressing the hBK1 receptor are cultivated in Dulbecco's modified medium. The medium from confluent cultures is removed and the cells are washed with PBS buffer, scraped off and isolated by centrifugation. The cells are then homogenized in suspension and the homogenate is centrifuged and resuspended. The protein content is determined and the membrane preparation obtained in this manner is then frozen at −80° C.
After thawing, 200 μl of the homogenate (50 to 100 μg of proteins/assay) are incubated at room temperature with 0.5 to 1.0 nM of kallidin (DesArg10, Leu9), [3,4-prolyl-3,43H(N)] and increasing concentrations of the test substance in a total volume of 250 μl for 60 minutes. The incubation is terminated by rapid filtration through GF/B glass fibre filters which had been pretreated with polyethyleneimine (0.3%). The protein-bound radioactivity is measured in a TopCount NXT. Non-specific binding is defined as radioactivity bound in the presence of 1.0 μM of kallidin (DesArg10, Leu9), [3,4-prolyl-3,43H(N)]. The concentration/binding curve is analysed using a computer-assisted nonlinear curve fitting. The Ki which corresponds to the test substance is determined using the data obtained in this manner. […]

Row | SMILES | pKi
1 | COc1cc(C)c(S(=O)(=O)N(C)CCOCC(=O)N(C)[C@H]2CC[C@@H](CCN(C)CC3CC3)CC2)c(C)c1 [(463)] | 8.70
2 | COc1cc(C)c(S(=O)(=O)N(C)CCOCC(=O)N(C)Cc2ccc(CN(C)C3CCCC3)cc2)c(C)c1 [(102)] | 8.30
3 | COc1cc(C)c(S(=O)(=O)N(C)CCOCC(=O)N(C)C2CCc3cc(OCCN4CCCC4)ccc32)c(C)c1 (centres unmarked) [(418)] | 8.92
4 | COc1cc(C)c(S(=O)(=O)N(C)CCOCC(=O)N(C)Cc2ccc(CNC(C)C)cc2)c(C)c1 [(59)] | 8.20
5 | COc1cc(C)c(S(=O)(=O)N(C)CCOCC(=O)N(C)[C@@H]2CCN([C@H]3CC[C@@H](N4CCCC4)CC3)C2)c(C)c1 [(448)] | 9.09
6 | COc1cc(C)c(S(=O)(=O)N(C)CCOCC(=O)N(C)Cc2ccc(OCC3CCCN3C)cc2)c(C)c1 (centres unmarked) [(402)] | 8.03
7 | COc1cc(C)c(S(=O)(=O)N(C)CCC(=O)Nc2ccc(N3CCN(c4ccncc4)CC3)cc2)c(C)c1 [(13)] | 8.68
8 | COc1cc(C)c(S(=O)(=O)N(C)CCC(=O)Nc2ccc(N3CCC(CCN(C)C)CC3)c(Cl)c2)c(C)c1 [(182)] | 8.32
9 | COc1cc(C)c(S(=O)(=O)N(C)CCOCC(=O)N(C)[C@H]2CC[C@@H](CN3CCC(N(C)C)C3)CC2)c(C)c1 (some centres unmarked) [(444)] | 8.16
10 | COc1cc(C)c(S(=O)(=O)N(C)CCOCC(=O)N(C)Cc2ccc(CN3CCCC3)cc2C)c(C)c1 [(338)] | 8.95
11 | COc1cc(C)c(S(=O)(=O)N(C)CCOCC(=O)N(C)[C@@H]2CCN(C3CCN(C(C)C)CC3)C2)c(C)c1 [(398)] | 9.13
12 | COc1cc(C)c(S(=O)(=O)N(C)CCOCC(=O)N(C)Cc2ccc3nc(NCCN(C)C)ccc3c2)c(C)c1 [(368)] | 8.82
13 | CCN(CC)CC1CCN(c2ccc(NC(=O)CCN(C)S(=O)(=O)c3c(C)cc(OC)cc3C)cc2Cl)CC1 [(181)] | 8.15
14 | COc1cc(C)c(S(=O)(=O)N(C)CCC(=O)NC2CCN(c3ccc(CN4CCCC4)cc3Cl)CC2)c(C)c1 [(188)] | 8.03
15 | COc1cc(C)c(S(=O)(=O)N(C)CCC(=O)Nc2ccc(N3CCC(N(C)C)CC3)c(Cl)c2)c(C)c1 [(180)] | 8.28
16 | CCN1CCC(N2CC[C@H](N(C)C(=O)COCCN(C)S(=O)(=O)c3c(C)cc(OC)cc3C)C2)CC1 [(401)] | 8.57
17 | COc1cc(C)c(S(=O)(=O)N(C)CCOCC(=O)N(C)C[C@H]2CC[C@@H](N(C)CCN(C)C)CC2)c(C)c1 [(428)] | 8.20
18 | CCN(CC)CC1CCN(c2ccc(NC(=O)CCN(C)S(=O)(=O)c3c(C)cc(OC)cc3C)cc2C)CC1 [(97)] | 8.17
19 | COc1cc(C)c(S(=O)(=O)N(C)CCOCC(=O)N(C)[C@H]2CCN(C3CCN(C(C)C)CC3)C2)c(C)c1 [(399)] | 8.52
20 | COc1cc(C)c(S(=O)(=O)N(C)CCOCC(=O)N(C)Cc2ccc(C3CCN(C)CC3)cc2)c(C)c1 [(326)] | 8.19
21 | CN(CCC(=O)Nc1ccc(N2CCN(c3ccncc3)CC2)cc1)S(=O)(=O)c1cccc(Cl)c1Cl [(1)] | 8.21

Row | SMILES | pKi
22 | COc1cc(C)c(S(=O)(=O)N(C)CCOCC(=O)N(C)C[C@H]2CC[C@H](CN3CCC3)CC2)c(C)c1 [(392)] | 8.08
23 | COc1cc(C)c(S(=O)(=O)N(C)CCOCC(=O)N(C)[C@@H]2CCC[C@H](N3CCN(C)CC3)C2)c(C)c1 [(421)] | 8.06
24 | COc1cc(C)c(S(=O)(=O)N(C)CCOCC(=O)N(C)C(C)c2ccc3c(c2)CCN(C)CC3)c(C)c1 (centres unmarked) [(386)] | 8.20
25 | COc1cc(C)c(S(=O)(=O)N(C)CCOCC(=O)N(C)Cc2ccc(N3CCCC3CN(C)C)cc2)c(C)c1 (centres unmarked) [(335)] | 8.03
26 | COc1cc(C)c(S(=O)(=O)N(C)CCOCC(=O)N(C)C[C@@H]2CC[C@H](CN3CCCC3)C2)c(C)c1 [(425)] | 8.08
27 | COc1cc(C)c(S(=O)(=O)N(C)CCOCC(=O)N(C)Cc2ccc(CN3CCCC3)cc2)c(C)c1 [(109)] | 8.22
28 | COc1cc(C)c(S(=O)(=O)N(C)CCOCC(=O)N(C)CC2CCN(c3ccncc3)CC2)c(C)c1 [(61)] | 8.48
29 | COc1cc(C)c(S(=O)(=O)N(C)CCOCC(=O)N(C)Cc2ccc(N3CCC(N(C)C)C3)cc2)c(C)c1 (centres unmarked) [(334)] | 8.06
30 | COc1cc(C)c(S(=O)(=O)N(C)CCOCC(=O)N(C)[C@H]2CC[C@@H](CCN3CCCC3)CC2)c(C)c1 [(435)] | 8.82
31 | COc1cc(C)c(S(=O)(=O)N(C)CCOCC(=O)N(C)Cc2ccc3c(c2)nc(N)n3C)c(C)c1 [(369)] | 8.42
32 | COc1cc(C)c(S(=O)(=O)N(C)CCOCC(=O)N(C)[C@H]2CC[C@H](CCN3CCCC3)CC2)c(C)c1 [(439)] | 8.12
33 | COc1cc(C)c(S(=O)(=O)N(C)CCOCC(=O)N(C)[C@@H]2CCN(C3CCN(CC4CC4)CC3)C2)c(C)c1 [(458)] | 8.37
34 | COc1cc(C)c(S(=O)(=O)N(C)CCC(=O)NCc2ccc(N3CCC(N4CCCC4)CC3)c(C)c2)c(C)c1 [(269)] | 8.11
35 | COc1cc(C)c(S(=O)(=O)N(C)CCOCC(=O)N(C)[C@H]2CCN(C3CCN(CC4CC4)CC3)C2)c(C)c1 [(465)] | 8.42
36 | COc1cc(C)c(S(=O)(=O)N(C)CCOCC(=O)N(C)CC2CCN(C3CCN(C)CC3)CC2)c(C)c1 [(384)] | 8.03
37 | COc1cc(C)c(S(=O)(=O)N(C)CCOCC(=O)N(C)Cc2ccc(OCCN3CCCC3)cc2)c(C)c1 [(358)] | 8.46
38 | COc1cc(C)c(S(=O)(=O)N(C)CCOCC(=O)N(C)[C@H]2CCN(C3CCN(C)CC3)C2)c(C)c1 [(393)] | 8.80
39 | COc1cc(C)c(S(=O)(=O)N(C)CCOCC(=O)N(C)Cc2ccc(-c3cn4ccccc4n3)cc2)c(C)c1 [(73)] | 8.17
40 | COc1cc(C)c(S(=O)(=O)N(C)CCOCC(=O)N(C)Cc2ccc(NCCN(C)C)cc2)c(C)c1 [(325)] | 9.03
41 | COc1cc(C)c(S(=O)(=O)N(C)CCC(=O)NC2CCN(c3ncc(CN4CCCC4)cc3Cl)CC2)c(C)c1 [(216)] | 8.31
42 | COc1cc(C)c(S(=O)(=O)N(C)CCOCC(=O)N(C)C[C@]2(C)CC[C@H](CN3CCCC3)C2(C)C)c(C)c1 [(423)] | 8.47

The remaining lines, values ahead:

Row | pKi | SMILES
43 | 8.03 | COc1cc(C)c(S(=O)(=O)N(C)CCOCC(=O)N(C)C[C@]2(C)CC[C@H](CN3CCC3)C2(C)C)c(C)c1 [(582)]
44 | 8.62 | COc1cc(C)c(S(=O)(=O)N(C)CCOCC(=O)N(C)CC2CCN(C(=O)CCN3CCCC3)CC2)c(C)c1 [(475)]
45 | 8.24 | COc1cc(C)c(S(=O)(=O)N(C)CCOCC(=O)N(C)C[C@H]2CC[C@@](C)(CN3CCC3)C2(C)C)c(C)c1 [(621)]
46 | 8.29 | COc1cc(C)c(S(=O)(=O)N(C)CCOCC(=O)N(C)CC2CCC(N3CCC(N(C)C)CC3)CC2)c(C)c1 (centres unmarked) [(586)]
47 | 9.00 | COc1cc(C)c(S(=O)(=O)N(C)CCOCC(=O)N(C)C2CCC(N3CCC(N4CCCC4)CC3)CC2)c(C)c1 (centres unmarked) [(468)]
48 | 8.55 | COc1cc(C)c(S(=O)(=O)N(C)CCOCC(=O)N(C)[C@H]2CC[C@@H](CCN3CCC3)CC2)c(C)c1 [(592)]
49 | 8.70 | COc1cc(C)c(S(=O)(=O)N(C)CCOCC(=O)N(C)[C@H]2CC[C@@H](OCCN3CCCC3)CC2)c(C)c1 [(614)]
50 | 8.63 | COc1cc(C)c(S(=O)(=O)N(C)CCOCC(=O)N(C)[C@H]2CC[C@@H](CN3CCC[C@@H](N(C)C)C3)CC2)c(C)c1 [(476)]
51 | 9.07 | COc1cc(C)c(S(=O)(=O)N(C)CCOCC(=O)N(C)C[C@@H]2CCN(CCCN3CCCC3)C2)c(C)c1 [(576)]
52 | 8.39 | COc1cc(C)c(S(=O)(=O)N(C)CCOCC(=O)N(C)[C@H]2CC[C@@H](CN3CC[C@H](N4CCCC4)C3)CC2)c(C)c1 [(471)]
53 | 8.72 | COc1cc(C)c(S(=O)(=O)N(C)CCOCC(=O)N(C)C[C@H]2CC[C@H](NCCN3CCCC3)CC2)c(C)c1 [(591)]
54 | 8.05 | COc1cc(C)c(S(=O)(=O)N(C)CCOCC(=O)N(C)C[C@H]2CC[C@@H](N3CCN(C)CC3)CC2)c(C)c1 [(584)]
55 | 9.47 | COc1cc(C)c(S(=O)(=O)N(C)CCOCC(=O)N(C)[C@@H]2CCN(C3CCN(C4CCC4)CC3)C2)c(C)c1 [(577)]
56 | 8.21 | COc1cc(C)c(S(=O)(=O)N(C)CCOCC(=O)N(C)[C@@H]2CCN(C(=O)CCN3CCCC3)C2)c(C)c1 [(580)]
57 | 8.85 | COc1cc(C)c(S(=O)(=O)N(C)CCOCC(=O)N(C)C[C@H]2CC[C@@](C)(CN3CCCC3)C2(C)C)c(C)c1 [(474)]
58 | 8.10 | CCN(CC)CCC(=O)N1CC[C@@H](N(C)C(=O)COCCN(C)S(=O)(=O)c2c(C)cc(OC)cc2C)C1 [(624)]
59 | 8.82 | COc1cc(C)c(S(=O)(=O)N(C)CCOCC(=O)N(C)C2CCC(N3CCC(C4CCN(C)CC4)CC3)CC2)c(C)c1 (centres unmarked) [(588)]
60 | 8.47 | COc1cc(C)c(S(=O)(=O)N(C)CCOCC(=O)N(C)[C@@H]2CCN(C(=O)CCN3CCCCC3)C2)c(C)c1 [(623)]
61 | 8.49 | COc1cc(C)c(S(=O)(=O)N(C)CC(=O)NCC(=O)N(C)Cc2ccc(NCCN(C)C)cc2)c(C)c1 [(492)]
62 | 8.43 | COc1cc(C)c(S(=O)(=O)N(C)CCOCC(=O)N(C)C(C)[C@H]2CC[C@H](CN3CCCC3)CC2)c(C)c1 (some centres unmarked) [(616)]
